The record followed here is ChEMBL document CHEMBL5352436, “Triterpenoid pyrazines and pyridines - Synthesis, cytotoxicity, mechanism of action, preparation of prodrugs” (Eur J Med Chem, 2022).

pIC50: −log10 of the molar value.

The test system of one data set is CCRF-CEM. Put plainly: Cytotoxicity against human CCRF-CEM cells assessed as reduction in cell viability incubated for 72 hrs by MTS assay. The class given is functional, cell-based.
Another data set has as its system CEM-DNR. Put plainly: Cytotoxicity against human CEM-DNR cells assessed as reduction in cell viability incubated for 72 hrs by MTS assay. Format: functional, cell-based.
In the next data set the test system is K562. Put plainly: Cytotoxicity against human K562 cells assessed as reduction in cell viability incubated for 72 hrs by MTS assay. To be noted: K562, 72 h. The class given is functional, cell-based. A general note: Tetrazolium dyes change colour on reduction, which living cells bring about.
Data set [1] can be described thus: Cytotoxicity against human K562-Tax cells assessed as reduction in cell viability incubated for 72 hrs by MTS assay. The class given is functional, cell-based.
The next data set has as its system HCT-116. Put plainly: Cytotoxicity against human HCT-116 cells assessed as reduction in cell viability incubated for 72 hrs by MTS assay. Format: functional, cell-based. To be noted: HCT-116, 72 h.
The nature of data set [2]: Cytotoxicity against human HCT116-p53-null cells assessed as reduction in cell viability incubated for 72 hrs by MTS assay. Format: functional, cell-based.
The next data set concerns A549. Put plainly: Cytotoxicity against human A549 cells assessed as reduction in cell viability incubated for 72 hrs by MTS assay. The class given is functional, cell-based. To be noted: A549, 72 h.
A further data set deals with U2OS. Put plainly: Cytotoxicity against human U2OS cells assessed as reduction in cell viability incubated for 72 hrs by MTS assay. The class given is functional, cell-based.
The nature of data set [3]: Cytotoxicity against human BJ cells assessed as reduction in cell viability incubated for 72 hrs by MTS assay. Format: toxicity, cell-based.
Data set [4] is described as follows: Cytotoxicity against human MRC5 cells assessed as reduction in cell viability incubated for 72 hrs by MTS assay. The class given is toxicity, cell-based.

For `C=C(C)[C@@H]1CC[C@]2(C(=O)OCc3oc(=O)oc3C)CC[C@]3(C)[C@H](CC[C@@H]4[C@@]5(C)Cc6nccnc6C(C)(C)[C@@H]5CC[C@]43C)[C@@H]12`, the pIC50 (usually the IC50 on a negative log10 scale, so that one unit is a factor of ten) is 5.44 in the data set with CCRF-CEM; 6.31 in the data set on CEM-DNR; below 4.30 with K562; 4.89 in data set [1]; 4.40 in the data set with HCT-116; 4.31 in data set [2]. Besides, the pIC50 is 5.00 with A549 and 4.35 in the data set on U2OS. For the same molecule, the IC50 at 72 h in [3] and in data set [4] was above 50 µM in each case.

On to `CC1(C)CC[C@]23CC[C@]4(C)[C@H](CC[C@@H]5[C@@]6(C)CCC(=O)C(C)(C)[C@@H]6CC[C@]54C)[C@H]2[C@H]1OC3`, for which the pIC50 (with CCRF-CEM; in the data set with CEM-DNR; in the data set on K562; in [1]; in the data set on HCT-116; in data set [2]) was below 4.30 each time. The pIC50 in the data set on A549 and in the data set on U2OS was below 4.30 in each case. In addition, the IC50 at 72 h in data set [3] and in data set [4] was above 50 µM in each case.

Regarding `CC1(C)CC[C@]23CC[C@]4(C)[C@H](CC[C@@H]5[C@@]6(C)Cc7cccnc7C(C)(C)[C@@H]6CC[C@]54C)[C@H]2[C@H]1OC3`, the pIC50 (in the data set on CCRF-CEM; with CEM-DNR; in the data set with K562; in [1]; with HCT-116; in [2]) was below 4.30 throughout. In addition, the pIC50 in the data set on A549 and in the data set with U2OS was below 4.30 throughout. Also, the IC50 at 72 h in data set [3] and in [4] was above 50 µM in each case.

On to `CC1=CC[C@]2(C(=O)O)CC[C@]3(C)[C@H](CC[C@@H]4[C@@]5(C)Cc6nccnc6C(C)(C)[C@@H]5CC[C@]43C)[C@H]2[C@@H]1C`, for which the pIC50 with CCRF-CEM was 5.14; with CEM-DNR, 5.00; with K562, 4.74; in data set [1] it was 5.00; in the data set on HCT-116, 4.32; in data set [2], 4.30. For the same molecule, the negative logarithm of the IC50 (pIC50) is 4.36 in the data set on A549 and 4.34 in the data set with U2OS. In addition, the IC50 at 72 h in data set [3] and in [4] was above 50 µM throughout.

For `CC1(C)C=C2[C@H]3CC[C@@H]4[C@@]5(C)CCC(=O)C(C)(C)[C@@H]5CC[C@@]4(C)[C@]3(C)CC[C@@]2(C(=O)O)CC1` [MORONIC ACID], the pIC50 in the data set with CCRF-CEM is 4.77; with CEM-DNR it was 4.77; in the data set on K562, below 4.30; in [1], 4.68; with HCT-116 it was 4.35; in data set [2], below 4.30. The pIC50 with A549 is 4.33; with U2OS it was below 4.30. In addition, the IC50 at 72 h in data set [3] and in [4] was above 50 µM each time.

Turning to `C[C@H]1[C@H](C)CC[C@]2(C(=O)O)CC[C@]3(C)C(=CC[C@@H]4[C@@]5(C)Cc6nccnc6C(C)(C)[C@]5(C)CC[C@]43C)[C@H]12`, the pIC50 in the data set with CCRF-CEM is 4.72; in the data set with CEM-DNR, 4.77; in the data set with K562 it was below 4.30; in data set [1], 4.36; in the data set on HCT-116 it was 4.30; in data set [2], below 4.30. Also, the pIC50 in the data set with A549 and with U2OS was below 4.30 in each case. Moreover, the IC50 at 72 h in data set [3] and in data set [4] was above 50 µM throughout.

For `Cc1oc(=O)oc1COC(=O)[C@]12CC[C@@H](C(C)C)[C@@H]1[C@H]1CC[C@@H]3[C@@]4(C)Cc5nccnc5C(C)(C)[C@@H]4CC[C@@]3(C)[C@]1(C)CC2`, the pIC50 in the data set on CCRF-CEM was 4.77; with CEM-DNR, 4.30; in the data set with K562 it was 7.59; in data set [1] it was 4.92; in the data set on HCT-116, below 4.30; in data set [2], 4.36. In addition, the pIC50 in the data set with A549 was 4.39; with U2OS, 4.40. In addition, the concentration for half-maximal inhibition (IC50) at 72 h in [3] and in data set [4] was above 50 µM each time.

On to `CC1(C)C=C2[C@H]3CC[C@@H]4[C@@]5(C)Cc6cccnc6C(C)(C)[C@@H]5CC[C@@]4(C)[C@]3(C)CC[C@@]2(C(=O)O)CC1`, for which the pIC50 is 5.10 with CCRF-CEM; 4.85 with CEM-DNR; below 4.30 in the data set with K562; 4.82 in data set [1]; 4.33 in the data set on HCT-116; below 4.30 in data set [2]. Besides, the pIC50 in the data set on A549 and in the data set on U2OS was below 4.30 throughout. Further, the IC50 at 72 h in [3] and in [4] was above 50 µM each time.

Consider `CC1(C)CC[C@]2(C(=O)O)CC[C@]3(C)C(=CC[C@@H]4[C@@]5(C)Cc6nccnc6C(C)(C)[C@@H]5CC[C@]43C)[C@@H]2C1`, for which the negative-log IC50 (pIC50) in the data set on CCRF-CEM was 4.74; in the data set on CEM-DNR, 4.85; with K562, below 4.30; in [1], 4.47; in the data set with HCT-116 it was 4.30; in data set [2], below 4.30. In addition, the pIC50 was 4.30 in the data set with A549 and below 4.30 in the data set on U2OS. In addition, the IC50 at 72 h in data set [3] and in data set [4] was above 50 µM each time.

As for `CC1=CC[C@]2(C(=O)O)CC[C@]3(C)C(=CC[C@@H]4[C@@]5(C)Cc6cccnc6C(C)(C)[C@@H]5CC[C@]43C)[C@H]2[C@@H]1C`, the pIC50 is 5.20 with CCRF-CEM; 4.96 in the data set with CEM-DNR; 4.92 in the data set on K562; 4.89 in data set [1]; 4.47 with HCT-116; 4.47 in data set [2]. Moreover, the pIC50 with A549 was 4.70; with U2OS it was 4.46. The IC50 at 72 h in data set [3] and in [4] was above 50 µM each time.

In the case of `C=C(C)[C@@H]1CC[C@]2(C(=O)OCc3oc(=O)oc3C)CC[C@]3(C)[C@H](CC[C@@H]4[C@@]5(C)Cc6cccnc6C(C)(C)[C@@H]5CC[C@]43C)[C@@H]12`, the pIC50 in the data set on CCRF-CEM was 4.46; in the data set with CEM-DNR, 4.32; in the data set on K562, 7.43; in data set [1], 4.31; in the data set with HCT-116, below 4.30; in data set [2] it was below 4.30. Besides, the pIC50 with A549 was 4.30; in the data set with U2OS, below 4.30. The IC50 at 72 h in data set [3] and in data set [4] was above 50 µM in each case.

Take `C[C@H]1[C@H](C)CC[C@]2(C(=O)O)CC[C@]3(C)C(=CC[C@@H]4[C@@]5(C)CCC(=O)C(C)(C)[C@@H]5CC[C@]43C)[C@H]12` [URSONIC ACID]: the pIC50 is 4.80 in the data set with CCRF-CEM; 4.72 with CEM-DNR; below 4.30 with K562; 4.57 in data set [1]; 4.33 in the data set with HCT-116; below 4.30 in data set [2]. The pIC50 was 4.30 with A549 and below 4.30 in the data set with U2OS. Moreover, the IC50 at 72 h in data set [3] and in data set [4] was above 50 µM each time.

In the case of `CC1(C)C=C2[C@H]3CC[C@@H]4[C@@]5(C)Cc6nccnc6C(C)(C)[C@@H]5CC[C@@]4(C)[C@]3(C)CC[C@@]2(C(=O)O)CC1`, the pIC50 in the data set on CCRF-CEM is 4.82; in the data set with CEM-DNR, 4.54; in the data set with K562 it was below 4.30; in data set [1], 4.60; in the data set on HCT-116, 4.40; in [2], below 4.30. Also, the pIC50 in the data set on A549 and with U2OS was below 4.30 throughout. The IC50 at 72 h in data set [3] and in data set [4] was above 50 µM each time.

For `C#CCOC(=O)[C@]12CC[C@@H](C(=C)C)[C@@H]1[C@H]1CC[C@@H]3[C@@]4(C)CC[C@H](O)C(C)(C)[C@@H]4CC[C@@]3(C)[C@]1(C)CC2`, the pIC50 in the data set with CCRF-CEM was 4.62; in the data set with CEM-DNR it was 4.40; in the data set on K562, 4.37; in data set [1], 4.44; with HCT-116, 4.48; in data set [2], 4.51. Besides, the pIC50 is 4.37 in the data set on A549 and 4.51 in the data set on U2OS. For the same molecule, the IC50 – broadly, the concentration needed to halve the response being measured – at 72 h in data set [3] came to 32 µM; in data set [4] it was 26 µM.

As for `CC1(C)CC[C@]2(C(=O)O)CC[C@]3(C)C(=CC[C@@H]4[C@@]5(C)Cc6cccnc6C(C)(C)[C@@H]5CC[C@]43C)[C@@H]2C1`, the pIC50 with CCRF-CEM is 4.41; in the data set on CEM-DNR it was below 4.30; with K562 it was 4.89; in data set [1], below 4.30; in the data set with HCT-116, below 4.30; in data set [2] it was below 4.30. In addition, the pIC50 with A549 and in the data set on U2OS was below 4.30 throughout. The IC50 at 72 h in [3] and in data set [4] was above 50 µM in each case.

As for `C[C@H]1[C@H](C)CC[C@]2(C(=O)O)CC[C@]3(C)C(=CC[C@@H]4[C@@]5(C)Cc6cccnc6C(C)(C)[C@@H]5CC[C@]43C)[C@H]12`, the pIC50 in the data set on CCRF-CEM was 4.42; with CEM-DNR it was 4.40; in the data set on K562 it was 4.49; in data set [1] it was 4.33; in the data set on HCT-116, below 4.30; in data set [2] it was below 4.30. Further, the pIC50 in the data set with A549 and with U2OS was below 4.30 in each case. The IC50 at 72 h in data set [3] and in data set [4] was above 50 µM in each case.
